Source: paper PMC10386709, “Preparation of Alcohol Dehydrogenase–Zinc Phosphate Hybrid Nanoflowers through Biomimetic Mineralization and Its Application in the Inhibitor Screening” (Molecules, 2023)

T1: Alcohol dehydrogenase (ADH) (Saccharomyces cerevisiae, UniProt P00330)
T1 construct: gene ADH1
T1 sequence (P00330 2-348): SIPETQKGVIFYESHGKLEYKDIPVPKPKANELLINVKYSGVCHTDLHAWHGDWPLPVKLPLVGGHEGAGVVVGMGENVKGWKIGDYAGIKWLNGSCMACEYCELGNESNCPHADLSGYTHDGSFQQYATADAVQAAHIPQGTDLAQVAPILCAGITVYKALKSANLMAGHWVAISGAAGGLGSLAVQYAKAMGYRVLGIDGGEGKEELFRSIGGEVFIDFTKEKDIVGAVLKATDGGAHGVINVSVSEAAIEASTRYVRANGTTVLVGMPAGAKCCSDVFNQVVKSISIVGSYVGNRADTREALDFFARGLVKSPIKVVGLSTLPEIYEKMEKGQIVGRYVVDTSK


Assays:
[1] = biological target: T1, Alcohol dehydrogenase (ADH); assay: NADH absorbance at […] nm, dose-response; free ADH (IC50 […] on immobilized ADH HNFs); format: biochemical
[2] = biological target: T1, Alcohol dehydrogenase (ADH); assay: NADH absorbance at […] nm, immobilized ADH nanoflowers, % inhibition at […]; format: biochemical
[3] = biological target: T1, Alcohol dehydrogenase (ADH); assay: NADH absorbance at […] nm, immobilized ADH nanoflowers, % inhibition at […] (weak); format: biochemical
[4] = substrate: NC(=O)c1ccc[n+]([C@@H]2O[C@H](COP(=O)([O-])OP(=O)(O)OC[C@H]3O[C@@H](n4cnc5c(N)ncnc54)[C@H](O)[C@@H]3O)[C@@H](O)[C@H]2O)c1; assay: purified protein; format: biochemical, Saccharomyces cerevisiae; conditions: Zn2+

inhibition at 1500 µM ([2]; read-out: Inhibition (%)) [%] | Molecule | inhibition at 1500 µM [2] [%] | further results
 | CNC(=C[N+](=O)[O-])NCCSCc1ccc(CN(C)C)o1 [ranitidine] |  | IC50 [1]: 390 µM
61.9 ± 2.8 | O=C(O)c1cc(O)c(O)c(O)c1 [gallic acid] |  | 
 | O=C1C[C@@H](c2ccc(O)cc2)Oc2cc(O)cc(O)c21 [naringenin] | 75.5 ± 2.1 | 
 | Oc1cc(O)c2c(c1)O[C@H](c1ccc(O)c(O)c1)[C@@H](O)C2 [Cianidanol] |  | inhibition at 1500 µM [3]: 34.9 ± 4%
58.2 ± 10.3 | O=c1oc2c(O)c(O)cc3c(=O)oc4c(O)c(O)cc1c4c23 [ellagic acid] |  | 
 | O=C(O)c1ccc(O)c(O)c1 [protocatechuic acid] | 68.3 ± 2.9 | 
52.5 ± 5.5 | O=c1cc(-c2ccc(O)cc2)oc2cc(O)cc(O)c12 [apigenin] |  | 
 | COc1cc(C(=O)O)ccc1O [vanillic acid] | 55.1 ± 1 | 
 | Alcohol dehydrogenase (ADH) (Saccharomyces cerevisiae S288C) (protein) SIPETQKGVIFYESHGKLEYKDIPVPKPKANELLINVKYSGVCHTDLHAWHGDWPLPVKLPLVGGHEGAGVVVGMGENVKGWKIGDYAGIKWLNGSCMACEYCELGNESNCPHADLSGYTHDGSFQQYATADAVQAAHIPQGTDLAQVAPILCAGITVYKALKSANLMAGHWVAISGAAGGLGSLAVQYAKAMGYRVLGIDGGEGKEELFRSIGGEVFIDFTKEKDIVGAVLKATDGGAHGVINVSVSEAAIEASTRYVRANGTTVLVGMPAGAKCCSDVFNQVVKSISIVGSYVGNRADTREALDFFARGLVKSPIKVVGLSTLPEIYEKMEKGQIVGRYVVDTSK |  | Km [4]: 5.33 mM
